{
  "source": "ChEMBL document CHEMBL1140489",
  "about": "“New biologically active epidioxysterols from Stereum hirsutum” (2007)",
  "format_in_all_cases": "functional",
  "key": {"Escherichia coli": {"system": "Escherichia coli", "experiment": "Antibacterial activity against Escherichia coli ATCC […]"}, "Pseudomonas aeruginosa": {"system": "Pseudomonas aeruginosa", "experiment": "Antibacterial activity against Pseudomonas aeruginosa ATCC 27753"}, "Candida": {"system": "Candida", "experiment": "Antifungal activity against Candida sp."}, "Staphylococcus aureus": {"system": "Staphylococcus aureus", "experiment": "Antibacterial activity against staphylococcus aureus ATCC 25923"}, "[1]": {"system": "Mycobacterium tuberculosis", "experiment": "Antibacterial activity against Mycobacterium tuberculosis H37Rv by microdilution resazurin assay"}},
  "data": [
    {"smiles": "CC(C)C/C=C/[C@@H](C)[C@H]1CC[C@@H]2[C@]1(C)CC=C1[C@]23C=C[C@]2(C[C@@H](O)CC[C@]12C)OO3", "values": [
      {"measurement": "MIC", "setting": "Escherichia coli", "result": "> 512", "unit": "µg/mL"},
      {"measurement": "MIC", "setting": "Pseudomonas aeruginosa", "result": "> 512", "unit": "µg/mL"},
      {"measurement": "MIC", "setting": "Candida", "result": "> 512", "unit": "µg/mL"},
      {"measurement": "MIC", "setting": "Staphylococcus aureus", "result": "> 512", "unit": "µg/mL"},
      {"measurement": "MIC", "setting": "[1]", "result": 16, "unit": "µg/mL"}
    ]},
    {"smiles": "O=C(O)c1cn(C2CC2)c2cc(N3CCNCC3)c(F)cc2c1=O", "note": "[CIPROFLOXACIN]", "values": [
      {"measurement": "MIC", "setting": "Pseudomonas aeruginosa", "result": 1, "unit": "µg/mL"},
      {"measurement": "MIC", "setting": "Staphylococcus aureus", "result": 0.5, "unit": "µg/mL"},
      {"measurement": "MIC", "setting": "[1]", "result": 0.5, "unit": "µg/mL"}
    ]},
    {"smiles": "Clc1ccc(COC(Cn2ccnc2)c2ccc(Cl)cc2Cl)c(Cl)c1", "note": "(centres undefined) [MICONAZOLE]", "values": [
      {"measurement": "MIC", "setting": "Candida", "result": 0.25, "unit": "µg/mL"}
    ]},
    {"smiles": "CC(C)[C@@H](C)/C=C/[C@@H](C)[C@H]1CC[C@@H]2[C@]1(C)CC=C1[C@]23C=C[C@]2(C[C@@H](O)CC[C@]12C)OO3", "values": [
      {"measurement": "MIC", "setting": "Escherichia coli", "result": "> 512", "unit": "µg/mL"},
      {"measurement": "MIC", "setting": "Pseudomonas aeruginosa", "result": "> 512", "unit": "µg/mL"},
      {"measurement": "MIC", "setting": "Candida", "result": "> 512", "unit": "µg/mL"},
      {"measurement": "MIC", "setting": "Staphylococcus aureus", "result": "> 512", "unit": "µg/mL"},
      {"measurement": "MIC", "setting": "[1]", "result": 16, "unit": "µg/mL"}
    ]},
    {"smiles": "CC[C@@H](/C=C/[C@@H](C)[C@H]1CC[C@@H]2[C@]1(C)CC[C@H]1[C@]23C=C[C@]2(C[C@@H](O)CC[C@]12C)OO3)C(C)C", "values": [
      {"measurement": "MIC", "setting": "Escherichia coli", "result": "> 512", "unit": "µg/mL"},
      {"measurement": "MIC", "setting": "Pseudomonas aeruginosa", "result": "> 512", "unit": "µg/mL"},
      {"measurement": "MIC", "setting": "Candida", "result": "> 512", "unit": "µg/mL"},
      {"measurement": "MIC", "setting": "Staphylococcus aureus", "result": "> 512", "unit": "µg/mL"},
      {"measurement": "MIC", "setting": "[1]", "result": 64, "unit": "µg/mL"}
    ]},
    {"smiles": "Cn1c([N+](=O)[O-])cnc1C#Cc1ccnc(N)n1", "values": [
      {"measurement": "MIC", "setting": "Escherichia coli", "result": "> 512", "unit": "µg/mL"},
      {"measurement": "MIC", "setting": "Pseudomonas aeruginosa", "result": "> 512", "unit": "µg/mL"},
      {"measurement": "MIC", "setting": "Candida", "result": "> 512", "unit": "µg/mL"},
      {"measurement": "MIC", "setting": "Staphylococcus aureus", "result": "> 512", "unit": "µg/mL"},
      {"measurement": "MIC", "setting": "[1]", "result": 16, "unit": "µg/mL"}
    ]},
    {"smiles": "CC(C)[C@@H](C)/C=C/[C@@H](C)[C@H]1CC[C@@H]2[C@]1(C)CC[C@H]1[C@]23C=C[C@]2(C[C@@H](O)CC[C@]12C)OO3", "note": "[ERGOSTEROL PEROXIDE]", "values": [
      {"measurement": "MIC", "setting": "Escherichia coli", "result": "> 512", "unit": "µg/mL"},
      {"measurement": "MIC", "setting": "Pseudomonas aeruginosa", "result": "> 512", "unit": "µg/mL"},
      {"measurement": "MIC", "setting": "Candida", "result": "> 512", "unit": "µg/mL"},
      {"measurement": "MIC", "setting": "Staphylococcus aureus", "result": "> 512", "unit": "µg/mL"},
      {"measurement": "MIC", "setting": "[1]", "result": 64, "unit": "µg/mL"}
    ]}
  ]
}
